{"source": "patent US8962257B2", "about": "“Methods for diagnosing heart failure and other cardiac diseases” (The Trustees of the University of Pennsylvania, priority 2010, dated 2015)", "system": "NRG-1β", "test": "Serial plasma NRG-1β by indirect sandwich ELISA in Her-2+ breast cancer patients receiving doxorubicin and trastuzumab", "assay_type": "in vivo, human", "conditions": "with Doxorubicin exposure", "procedure": "NRG-1β is measured from frozen, previously unthawed serum or plasma samples that had been stored at −80° C. until time of assay. An indirect sandwich enzyme-linked immunosorbent assay (ELISA) was used (NRG1-β1 Duoset ELISA development system from R&D Systems, Minneapolis, Minn.). Assay technology was adapted for human samples, and all measurements were performed at Vanderbilt University. […] Following incubation, a biotinylated goat anti-human NRG1-β1 detection antibody was added to each well, and a streptavidin-HRP system was used for detection. […] Extensive validation was performed and there was no cross-reactivity with NRG-1α isoform or epidermal growth factor.\nData were obtained at enrollment and every 3 months during anti-cancer therapy.\nNRG-1β plasma level was measured serially every 3 months during chemotherapy treatment."}
{"smiles": "COc1cccc2c1C(=O)c1c(O)c3c(c(O)c1C2=O)C[C@@](O)(C(=O)CO)C[C@@H]3O[C@H]1C[C@H](N)[C@H](O)[C@H](C)O1", "note": "[Doxorubicin, doxorubicin]", "values": [{"measurement": "change in NRG-1β over time", "result": "significant decrease"}, {"measurement": "change in NRG-1β over time", "setting": "listed as doxorubicin", "result": "significant decline"}]}
